According to patent US9540337B2, “Gamma-glutamyl transpeptidase inhibitors and methods of use” (The Board of Regents of the University of Oklahoma, priority 2012, dated 2017):
Several values for one entry are separate records, joined by “and”; a condition that tells them apart may be missing. Equal values may be shown once. Read-outs that look alike come from different tables or passages of the source.

How the values were obtained:
[1] = molecular target: T1, hGGT (Homo sapiens, UniProt P19440); assay: L-Glutamate Release Assay (Hydrolysis of GSH); format: biochemical; details: for Ki: GSH hydrolysis, read-out: GSH Kii
T1 construct: lacking the transmembrane domain; made in house; host or cells: Pichia pastoris
Procedure: L-Glutamate Release Assay (Hydrolysis of GSH): This assay measures the production of glutamate from the hydrolysis of GSH by GGT enzyme and has been described in detail previously. The concentration of the substrate, GSH, was varied from 5 μM to 20 μM. The concentration of the inhibitors, OU749 and its analogs, were varied from 15.6 μM to 250 μM. The reaction was initiated with the addition of 10 mU hGGT. […] All compounds were also evaluated as inhibitors of glutamate dehydrogenase, the enzyme in the second half of the L-glutamate release assay. None of the compounds in this study inhibited glutamate dehydrogenase.

[2] = molecular target: T2, Human GGT1 (hGGT) (Homo sapiens, UniProt P19440); assay: L-GpNA Transpeptidation Assay with GlyGly as acceptor; format: biochemical; set-up: lacking the transmembrane domain; made in house; host or cells: Pichia pastoris; details: for fold change in L-GpNA Kii (transpeptidation) relative to Compound 16: weaker than Compound 16
Procedure: Transpeptidation Reaction: The same assay buffer was used for both the hydrolysis reaction and the transpeptidation reaction. The transpeptidation reaction included 40 mM glycylglycine (glygly, Sigma, St. Louis, Mo.) as the acceptor. […] The concentration of L-GpNA was 3 mM for experiments in which the concentration of glygly was varied. To initiate the transpeptidation reaction, 4 mU GGT were added.
1. […] 3 and 4. […] 5 (25).
L-GpNA Transpeptidation Assay: The assay has been described previously. […] The concentration of L-GpNA was 3 mM for experiments in which the concentration of GlyGly was varied. To initiate the transpeptidation reaction, 4 mU GGT were added.

[3] = molecular target: T2, Human GGT1 (hGGT); assay: D-GpNA Hydrolysis Assay (release of pNA, 405 nm, pH 7.4); details: for fold less effective than OU749 in inhibiting hydrolysis of D-GpNA: relative to OU749; for Vo (maximum velocity at zero activator) / V∞ (maximum rate at infinite activator): Hydrolysis D-GpNA, Table 3; for maximal fold induction: human
Procedure: (§1) Enzyme Isolation: Human GGT1 (P19440), lacking the transmembrane domain, was expressed in Pichia pastoris and isolated as previously described (14). […] One unit of GGT activity was defined as the amount of enzyme that released 1 μmol of paranitroaniline/min at 37° C. at pH 7.4 in the transpeptidation reaction.
The reaction was initiated with the addition of 19 mU GGT. The reaction was incubated at 37° C. and monitored continuously at 405 nm by a Bio-Rad model 680 microplate reader with Microplate Manager 5.2 software (Bio-Rad, Hercules, Calif.).
Data Analysis: Samples in each experiment were run in triplicate. Each inhibitor was evaluated in two or more independent experiments. Double reciprocal plots were generated to assess data quality and determine the correct rate equation for data fitting. Data were fitted using the proper rate equation and the Marquardt-Levenberg algorithm supplied with the Enzfitter program (BIOSOFT, Cambridge, UK). Kinetic parameters with standard errors were estimated using a simple weighting method.
Data adhering to Michaelis-Menten Kinetics were fitted to eq. 1. Data for initial rate patterns with D-, L-GpNA varied at different fixed levels of glygly were fitted to eq. […] Data for competitive and uncompetitive inhibition were fitted to eqs. 3 and 4. Data for the dependence of Vmax and Vmax/KD-GpNA on the concentration of activator were fitted using eq. 5 (25).
In eqs 1-6, Vmax are the initial and maximum rates, respectively, Ka and Kb are Michaelis constants for substrates A and B, respectively, and Kis and Kii are slope and intercept inhibition constants. In eq. 5, a is the value of Vmax or Vmax/KD-GpNA at zero activator/inhibitor, KID is the activation or inhibition constant, and KIN is a constant that causes the parameter to go to a constant value at infinite concentrations of X, the activator/inhibitor. The product a(KID/KIN) is the value of Vmax or Vmax/KD-GpNA at infinite activator/inhibitor (25). Data for noncompetitive inhibition were fitted to eq. 6. Data for the dependence of Vmax and Vmax/KD-GpNA on the concentration of activator were fitted using […].
as §1, with “hGGT” for “Human GGT1”, “described.” for “described (14).”, “reaction with L-GpNA.” for “reaction.”
D-GpNA Hydrolysis Assay: The assay was carried out as previously described. […] The reaction was initiated with the addition of 19 mU GGT as determined by the L-GpNA transpeptidation assay. The reaction was incubated at 37° C. and monitored continuously at 405 nm.

[4] = GlyGly varied, 3 mM L-GpNA, Table 2, read-out: Transpeptidation GlyGly Kis
[5] = L-GpNA varied, 40 mM GlyGly, Table 2, read-out: Transpeptidation L-GpNA Kii
[6] = pH 7.4, read-out: Fold Activation
[7] = read-out: activation of the Vmax for hydrolysis (V∞/Vo)
[8] = Table 3, read-out: Transpeptidation GlyGly Kis
[9] = Table 3, read-out: Transpeptidation L-GpNA Kii

T2 sequence (P19440 381-569 limits assumed): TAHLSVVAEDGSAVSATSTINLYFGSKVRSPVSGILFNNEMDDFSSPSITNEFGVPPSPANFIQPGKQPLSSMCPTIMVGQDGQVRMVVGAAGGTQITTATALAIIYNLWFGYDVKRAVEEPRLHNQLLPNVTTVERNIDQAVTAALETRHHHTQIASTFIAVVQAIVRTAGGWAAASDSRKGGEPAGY
T2 sequence (P19440 27-380 limits assumed): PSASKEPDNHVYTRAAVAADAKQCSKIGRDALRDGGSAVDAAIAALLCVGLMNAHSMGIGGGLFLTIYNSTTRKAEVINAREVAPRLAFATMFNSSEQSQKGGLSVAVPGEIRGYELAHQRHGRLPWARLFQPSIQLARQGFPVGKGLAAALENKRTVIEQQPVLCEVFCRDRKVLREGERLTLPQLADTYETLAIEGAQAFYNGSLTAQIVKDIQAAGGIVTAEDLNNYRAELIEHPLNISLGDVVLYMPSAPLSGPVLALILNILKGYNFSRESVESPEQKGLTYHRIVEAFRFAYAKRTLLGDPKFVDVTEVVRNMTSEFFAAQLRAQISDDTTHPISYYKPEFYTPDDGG
T1 sequence (P19440 381-569 limits assumed): as the sequence (P19440 381-569 limits assumed) above
T1 sequence (P19440 27-380 limits assumed): as the sequence (P19440 27-380 limits assumed) above

| Compound | Ki ([1]; Table 4) [µM] | Ki [2, 4] | Ki [3] [µM] | Ki [2, 5] | other results |
| --- | --- | --- | --- | --- | --- |
| COc1ccc(Cc2nnc(NS(=O)(=O)c3ccccc3)s2)cc1 [Compound 1] | 376 ± 50 | 54.1 ± 3.9 µM |  |  |  |
| COc1ccc(Cc2nnc(NS(=O)(=O)c3ccc(C)cc3)s2)cc1 [Compound 2] | 506 ± 75 | 10 ± 0.4 µM | 73.3 ± 4 | 22.7 ± 0.5 µM | fold less potent than OU749 in inhibiting GSH hydrolysis ([1]; relative to OU749): 1.3 fold |
| COc1ccc(Cc2nnc(NS(=O)(=O)c3ccc(Cl)cc3Cl)s2)cc1 [Compound 4] |  | 3.7 ± 1 µM | 75.6 ± 7.2 | 15.7 ± 0.7 µM | Ki ([1]; Table 6): 950 ± 242 µM |
| COc1ccc(Cc2nnc(NS(=O)(=O)c3ccc(NO)cc3)s2)cc1 [Compound 5] |  | 25.7 ± 1.3 µM | 149 ± 13.6 | 64.4 ± 5.1 µM | fold less effective than OU749 in inhibiting hydrolysis of D-GpNA [3]: 2-5 fold |
| COc1ccc(Cc2nnc(NS(=O)(=O)c3ccc(C(C)(C)C)cc3)s2)cc1 [Compound 7] | > 250 | 143 ± 8.7 µM | 341 ± 6.4 | 150 ± 13 µM | fold less effective than OU749 in inhibiting hydrolysis of D-GpNA [3]: 2-5 fold |
| COc1ccc(Cc2nnc(NS(=O)(=O)c3ccc(Cl)c(Cl)c3)s2)cc1 [Compound 8] |  | 10.8 ± 0.8 µM | 3160 ± 90 | 18.2 ± 0.7 µM | Ki ([1]; Table 6): > 250 µM |
| COc1ccc(Cc2nnc(NS(=O)(=O)c3ccc(OC)cc3)s2)cc1 [Compound 9] | > 250 | 133 ± 10.3 µM | 3800 ± 720 |  | Ki ([2]; Table 4, read-out: L-GpNA with GlyGly Kii): 149 ± 23 µM |
| COc1ccc(Cc2nnc(NS(=O)(=O)c3ccc(Cl)cc3)s2)cc1 [Compound 10] |  | 13.4 ± 0.8 µM |  | 32.5 ± 0.9 µM | Ki ([3]; read-out: Hydrolysis D-GpNA Kii, D-GpNA substrate, Table 2): 5530 ± 1460 µM; Ki ([1]; Table 6): > 250 µM |
| COc1ccc(Cc2nnc(NS(=O)(=O)c3ccc([N+](=O)[O-])cc3)s2)cc1 [Compound 11] |  | 96 µM and 95.7 µM |  | 93 µM and 92.8 µM | Vo (maximum velocity at zero activator) [3]: 1.59 ± 0.14 mM/min/nM; V∞ (maximum rate at infinite activator) [3]: 8.63 ± 1.21 mM/min/nM; maximal fold induction [3, 6]: 5.43 ± 2.04; difference in affinity for D-γ-glutamyl and L-γ-glutamyl enzyme intermediates ([2]; human): 2.5 fold; fold change in GlyGly Kis (transpeptidation) relative to Compound 16 ([2]; increase relative to Compound 16): more than 2 fold; fold change in L-GpNA Kii (transpeptidation) relative to Compound 16 [2]: less than 2 fold |
| COc1ccc(Cc2nnc(NS(=O)(=O)c3ccc(C(F)(F)F)cc3)s2)cc1 [Compound 12] |  | 46.3 ± 3.5 µM |  | 117 ± 7.4 µM |  |
| O=[N+]([O-])c1ccc(S(=O)(=O)Nc2nnc(Cc3ccccc3)s2)cc1 [Compound 13] |  |  |  |  | Vo (maximum velocity at zero activator) [3]: 1.59 ± 0.06 mM/min/nM; V∞ (maximum rate at infinite activator) [3]: 9.09 ± 0.55 mM/min/nM; maximal fold induction [3, 6]: 5.72 ± 0.32; maximal fold induction [3, 7]: 3 to 6; Ki [2, 8]: 59.6 ± 3.7 µM; Ki [2, 9]: 111 ± 5.5 µM; fold change in L-GpNA Kii (transpeptidation) relative to Compound 16 [2]: ~2 fold |
| O=[N+]([O-])c1ccc(Cc2nnc(NS(=O)(=O)c3ccc([N+](=O)[O-])cc3)s2)cc1 [Compound 14] |  |  |  |  | Vo (maximum velocity at zero activator) [3]: 1.27 ± 0.01 mM/min/nM; V∞ (maximum rate at infinite activator) [3]: 5.08 ± 0.41 mM/min/nM; maximal fold induction [3, 6]: 4 ± 0.11; maximal fold induction [3, 7]: 3 to 6; Ki [2, 8]: 81.2 ± 8.8 µM; Ki [2, 9]: 132 ± 5.5 µM |
